Where a chain is given by its changes, count along the chain named.

In experiment [1] the target is T1, STAT5b SH2 domain (Homo sapiens, UniProt P51692).
T1 sequence (P51692 1-787): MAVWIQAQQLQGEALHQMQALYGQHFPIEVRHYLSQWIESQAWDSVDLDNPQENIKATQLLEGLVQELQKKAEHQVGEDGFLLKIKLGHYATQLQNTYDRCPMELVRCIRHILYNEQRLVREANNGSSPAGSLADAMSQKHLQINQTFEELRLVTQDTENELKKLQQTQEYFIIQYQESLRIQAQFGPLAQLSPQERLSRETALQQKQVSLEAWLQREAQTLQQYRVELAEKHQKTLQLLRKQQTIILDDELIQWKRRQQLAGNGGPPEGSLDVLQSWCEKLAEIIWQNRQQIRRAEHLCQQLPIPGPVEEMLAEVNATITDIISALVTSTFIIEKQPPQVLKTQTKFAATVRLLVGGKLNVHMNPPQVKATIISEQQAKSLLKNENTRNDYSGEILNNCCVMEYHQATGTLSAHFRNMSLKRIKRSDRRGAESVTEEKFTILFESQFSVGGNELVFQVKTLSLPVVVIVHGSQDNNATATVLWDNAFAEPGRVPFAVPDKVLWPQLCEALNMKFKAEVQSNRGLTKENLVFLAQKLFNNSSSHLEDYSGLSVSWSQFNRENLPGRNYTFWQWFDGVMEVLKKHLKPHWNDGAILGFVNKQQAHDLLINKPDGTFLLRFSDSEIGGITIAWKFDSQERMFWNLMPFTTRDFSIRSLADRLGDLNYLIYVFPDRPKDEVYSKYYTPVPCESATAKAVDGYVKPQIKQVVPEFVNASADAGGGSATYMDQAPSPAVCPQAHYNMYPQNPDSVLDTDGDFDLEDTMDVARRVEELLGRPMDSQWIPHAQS
The experiment can be described thus: Fluorescence polarization assay, STAT5b SH2 domain. The format is binding. (In fluorescence polarisation assays a small probe gives low polarisation when free and higher when bound to something large.)

Experiment [2] concerns the target T2, STAT5b Phe633Ala (Homo sapiens, UniProt P51692, F633A).
T2 sequence (P51692 1-787 F633A): T1 sequence (P51692 1-787) with F633A
Nature of the experiment: Isothermal titration calorimetry, STAT5b Phe633Ala. The format is binding. The following applies: ITC, 25 °C, n = 2. (Isothermal titration calorimetry measures the heat released or taken up as one component is titrated into another.)

Experiment [3] has as its target T3, STAT5b Arg618Ala (Homo sapiens, UniProt P51692, R618A).
T3 sequence (P51692 1-787 R618A): T1 sequence (P51692 1-787) with R618A
Nature of the experiment: Isothermal titration calorimetry, STAT5b Arg618Ala. The format is binding. The following applies: ITC, 25 °C.

Experiment [4] deals with STAT5a-GFP. The experiment can be described thus: STAT5a Tyr694 phosphorylation in STAT5a-GFP-transfected K562 cells (Western blot). Format: cell-based, human. The following applies: 4 h, result in words.

In general, Ki refers to the dissociation constant of the complex between target and ligand, obtained from inhibition or displacement. The low end stands for tighter binding, the high end for weaker binding. A word on the IC50: it is the concentration that inhibits the measured activity by half. As usually defined, the Kd is the constant that tells how readily two partners part at equilibrium. On to `O=C(COc1ccc(C(=O)Nc2ccc(Oc3ccccc3)cc2)cc1)NCc1ccc(OP(=O)(O)O)c(OP(=O)(O)O)c1` [compound 4, 4-((2-(4-((4-phenoxyphenyl)carbamoyl)phenoxy)acetamido)methyl)-1,2-phenylene bis(dihydrogen phosphate)], for which, in experiment [1] (STAT5b Ki), the “fold reduced Ki value relative to 2” value was 5 fold and the “fold reduction in Ki value relative to 3” value was “more than 10 fold”. Besides, the affinity in experiment [1] (abstract, rounded) corresponds to a Ki of 9 nM. The same compound had an inhibitory constant (Ki) in experiment [1] (converted from IC50 using the published equation, mean ± s.d., n = 3) of 8.8 ± 0.3 nM. This compound also showed a half-inhibitory concentration (IC50) in experiment [1] (fluorescence polarization, mean ± s.d., three independent experiments) of 82 ± 3 nM. Also, in experiment [2], binding was characterised by a dissociation constant (Kd) of 1650 ± 20 nM, the ΔH is -4.3 ± 0.2 kcal/mol and the “−TΔS” value was -3.6 ± 0.2 kcal/mol. Further, in experiment [3], the affinity, expressed as Kd, was 5.6 ± 1.7 µM. In addition, the “inhibition of STAT5a phosphorylation” value in experiment [4] is recorded as “did not show significant activity”.

For the origin of these results see PMC5429769, “Rational development of Stafib-2: a selective, nanomolar inhibitor of the transcription factor STAT5b” (Scientific Reports, 2017).
